How the values were obtained:
[1] = biological target: T1, CCT/TRiC (Saccharomyces cerevisiae); assay: stopped-flow transient kinetics of phosphate release (labelled phosphate-binding protein), burst-phase rates fit to conformational selection; assay type: biochemical; details: 25 °C, pH 7.5 Tris-HCl, 10 mM MgCl2, 50 mM KCl, 20% glycerol, 1 mM DTT; stronger of two burst phases; read-out: ATP affinity (Kd)
T1 construct: gene CCT2; native complex from yeast cells, two back-to-back rings each of eight distinct subunits CCT1-CCT8; CCT2 mutations introduced in the chromosomal gene

[2] = biological target: T1, CCT/TRiC (Saccharomyces cerevisiae); assay: stopped-flow transient kinetics of phosphate release (labelled phosphate-binding protein), burst-phase rates fit to simple binding; assay type: biochemical; details: 25 °C, pH 7.5 Tris-HCl, 10 mM MgCl2, 50 mM KCl, 20% glycerol, 1 mM DTT; both burst phases similar; read-out: ATP affinity (Kd)
Description: stopped-flow transient kinetics of phosphate release (labelled phosphate-binding protein), burst-phase rates fit to simple binding on CCT/TRiC (Saccharomyces cerevisiae) | the ATP affinities corresponding to the two burst phases are similar and found to be

With `Nc1ncnc2c1ncn2[C@@H]1O[C@H](COP(=O)(O)OP(=O)(O)OP(=O)(O)O)[C@@H](O)[C@H]1O` [ATP] the Kd [1] was ~27 µM and the Kd [2] was ~7 µM.

Reference: article PMC10465592, “Reduced ADP off-rate by the yeast CCT2 double mutation T394P/R510H which causes Leber congenital amaurosis in humans” (Communications Biology, 2023)
